Data from patent US20040209270A1, “Method for identifying macrocyclic polyketides” (priority 2001, published 2004).

test system: biosensor E. coli SM 101 (EBZ512, pEBZ511, pEBZ514); assay: Luminescence measurements in the agar-plate diffusion assay with the E. coli biosensor system (luciferase reporter under mph(A) promoter / MphR(A) control); type: cell-based; details: assay discs, 28° C., 2 to 4 hours or 15 to 24 hours, FIG. 3
Method: The agar-plate diffusion assay was incubated at 28° C. for 2 to 4 hours or 15 to 24 hours and luminescence was recorded using a Berthold Luminograph LB980 (FIGS. 3, 4 and 5). If luminescence is stimulated, it is detectable within a diffusion zone around the sample placed. If the sample assayed has, at the same time, an anti-bacterial activity against the sensor organism, which is noticeable as a zone of inhibition in the very preferred embodiment of the longer incubation, then the stimulation of luminescence is detectable outside this halo of inhibition in the sub-lethal concentration range.
(§1) Agar-plate diffusion assay and luminescence measurements using the E. coli biosensor system. Illustration of the selectivity of the biological sensor component. The numbers given in the information on the test substances indicate the amounts of substance applied in μg.
as §1, with “Exemplary illustration” for “Illustration”, “stimulation of luminescence” for “selectivity”, “component as a function of time.” for “component.”

Row | Structure (SMILES) | stimulation of luminescence of the biosensor system
1 | CC[C@H]1OC(=O)[C@H](C)[C@@H](O[C@H]2C[C@@](C)(OC)[C@@H](O)[C@H](C)O2)[C@H](C)[C@@H](O[C@@H]2O[C@H](C)C[C@H](N(C)C)[C@H]2O)[C@](C)(O)C[C@@H](C)CN(C)[C@H](C)[C@@H](O)[C@]1(C)O [azithromycin] | stimulated
2 | CC[C@H]1OC(=O)[C@H](C)C(=O)[C@H](C)[C@@H](O[C@@H]2O[C@H](C)C[C@H](N(C)C)[C@H]2O)[C@@H](C)C[C@@H](C)C(=O)/C=C/[C@H]1C [narbomycin] | indicates
3 | CO[C@H]1C[C@H](O[C@H]2[C@H](C)[C@@H](O[C@@H]3O[C@H](C)C[C@H](N(C)C)[C@H]3O)[C@@H](C)C[C@@]3(CO3)C(=O)[C@H](C)[C@@H](O)[C@@H](C)[C@@H](C)OC(=O)[C@@H]2C)O[C@@H](C)[C@@H]1O [oleandomycin] | indicates
4 | O=C(N[C@H](CO)[C@H](O)c1ccc([N+](=O)[O-])cc1)C(Cl)Cl [chloramphenicol] | do not cause a stimulation of luminescence
5 | CC[C@H]1OC(=O)[C@H](C)C(=O)[C@H](C)[C@@H](O[C@@H]2O[C@H](C)C[C@H](N(C)C)[C@H]2O)[C@@H](C)C[C@@H](C)C(=O)/C=C/[C@]1(C)O [picromycin] | indicates
6 | CC[C@H]1OC(=O)[C@H](C)[C@@H](O[C@H]2C[C@@](C)(OC)[C@@H](O)[C@H](C)O2)[C@H](C)[C@@H](O[C@@H]2O[C@H](C)C[C@H](N(C)C)[C@H]2O)[C@](C)(OC)C[C@@H](C)C(=O)[C@H](C)[C@@H](O)[C@]1(C)O [clarithromycin] | indicates
7 | CC[C@H]1OC(=O)[C@H](C)[C@@H](O[C@H]2C[C@@](C)(OC)[C@@H](O)[C@H](C)O2)[C@H](C)[C@@H](O[C@@H]2O[C@H](C)C[C@H](N(C)C)[C@H]2O)[C@](C)(O)C[C@@H](C)C(=O)[C@H](C)[C@@H](O)[C@]1(C)O [erythromycin] | indicates
8 | C[C@@H]1O[C@@H]1P(=O)(O)O [fosfomycin] | do not cause a stimulation of luminescence
9 | CN[C@H](CC(C)C)C(=O)N[C@H]1C(=O)N[C@@H](CC(N)=O)C(=O)N[C@H]2C(=O)N[C@H]3C(=O)N[C@H](C(=O)N[C@H](C(=O)O)c4cc(O)cc(O)c4-c4cc3ccc4O)[C@H](O)c3ccc(c(Cl)c3)Oc3cc2cc(c3O[C@@H]2O[C@H](CO)[C@@H](O)[C@H](O)[C@H]2O[C@H]2C[C@](C)(N)[C@H](O)[C@H](C)O2)Oc2ccc(cc2Cl)[C@H]1O [vancomycin] | do not cause a stimulation of luminescence
10 | CC[C@H]1OC(=O)[C@H](C)[C@@H](O[C@@H]2O[C@H](C)C[C@H](N(C)C)[C@H]2O)[C@@H](C)C[C@@H](C)C(=O)/C=C/[C@]1(C)O [methymycin] | stimulated
11 | CO[C@@H]1[C@@H](OC(N)=O)[C@@H](O)[C@H](Oc2ccc3c(O)c(NC(=O)c4ccc(O)c(CC=C(C)C)c4)c(=O)oc3c2C)OC1(C)C [novobiocin] | do not cause a stimulation of luminescence

test system: microbial biosensor cell (E. coli biosensor system); assay: Detection of a macrolide-(erythromycin-) producing organism in situ, agar-plate diffusion assay with the biosensor; type: cell-based; details: assay disc or culture-covered agar blocks placed on biosensor suspension in soft agar; FIG. 5
Text: For this purpose, the microbial biosensor cell was used in the agar-plate diffusion assay. Agar blocks were placed on the biosensor suspension embedded in soft agar. These agar blocks were covered either with Saccharopolyspora erythraea DSM 40517 described as erythromycin producer or with Streptomyces viridochromogenes DSM 40721 described as avilamycin producer. Another agar block contained no growth.
Agar-plate diffusion assay and luminescence measurements using the E. coli biosensor system. In situ stimulation of luminescence by an erythromycin-producing Saccharopolyspora erythraea culture. The number given in the information on the reference substance erythromycin indicates the amount of substance applied in μg.

Row | Structure (SMILES) | stimulation of luminescence of the biosensor system
12 | CC[C@H]1OC(=O)[C@H](C)[C@@H](O[C@H]2C[C@@](C)(OC)[C@@H](O)[C@H](C)O2)[C@H](C)[C@@H](O[C@@H]2O[C@H](C)C[C@H](N(C)C)[C@H]2O)[C@](C)(O)C[C@@H](C)C(=O)[C@H](C)[C@@H](O)[C@]1(C)O [erythromycin] | stimulation of luminescence was detectable
